Consider 24 compounds from US11976056B2, “Substituted alkoxypyridinyl indolsulfonamides” (UCB Pharma GmbH, priority 2018, dated 2024).

The subject of series [1] is CYP1A2. The series is described as follows: CYP 450-1A2 induction assay in cryopreserved human hepatocytes. It counts as in vitro ADME. As to conditions: 10 μM test compound, 72 h, compared to vehicle control. The protocol:
Cryopreserved human hepatocytes from a single donor are seeded on a 96 well collagen coated plate so that the final seeding density is 0.1×10^6 cells/well (final volume per well 0.1 mL). The cells are then incubated in seeding medium at 37° C., 95% humidity, 5% CO2 to allow the cells to attach. After 4 h, the seeding medium is replaced with 0.1 mL of pre warmed serum free Williams E medium containing 100 IU/mL penicillin, 100 μg/mL streptomycin, 10 μg/mL insulin, 2 mM L glutamine and 0.1 μM hydrocortisone.
The next day, cells are dosed with test compound in assay medium (final test compound concentration 10 μM; final DMSO concentration 0.1%). Positive control inducers, omeprazole (50 μM) for CYP1A2, phenobarbital (500 μM) for CYP2B6 and rifampicin (10 μM) for CYP3A4, are incubated alongside the test compound. Negative control wells are included where the test compound is replaced by vehicle solvent (0.1% DMSO in assay medium). Each test compound is dosed in triplicate. The cells are exposed to the solutions for 72 h with fresh solution added every 24 h.
For catalytic activity determination, a solution of the probe substrates, phenacetin (final concentration 25 μM), bupropion (final concentration 100 μM) and midazolam (final concentration 2.5 μM) is prepared in pre warmed assay medium. At the end of the 72 h exposure period, the media is replaced with the cocktail of probe substrates. The hepatocytes are incubated for 30 min. An aliquot is removed at the end of the incubation period and placed into methanol containing internal standard in a 1:2 ratio. The samples are centrifuged at 2500 rpm at 4° C. for 20 min. An aliquot of supernatant is diluted with deionised water and levels of acetaminophen, hydroxybupropion and 1 hydroxymidazolam are quantified using Cyprotex generic LC MS/MS methods.
The hepatocytes are solubilised in 0.1M sodium hydroxide at room temperature and protein content in each well determined using Pierce™ BCA Protein Assay Kit (Thermo Scientific) using bovine serum albumin as a standard.
For catalytic activity determination, the concentration of metabolite formed at each test compound replicate is converted to CYP activity and normalised to protein. The fold change is determined by comparing to the vehicle control wells. The fold change observed at each test compound concentration is expressed as a percentage of the positive control compounds for each P450 isoform.

The target of series [2] is T1, GPR17 (Homo sapiens, UniProt Q13304). As to conditions: activating ligands for GPR17; cited from earlier work.
Target sequence in this assay (Q13304 whole entry, species assumed): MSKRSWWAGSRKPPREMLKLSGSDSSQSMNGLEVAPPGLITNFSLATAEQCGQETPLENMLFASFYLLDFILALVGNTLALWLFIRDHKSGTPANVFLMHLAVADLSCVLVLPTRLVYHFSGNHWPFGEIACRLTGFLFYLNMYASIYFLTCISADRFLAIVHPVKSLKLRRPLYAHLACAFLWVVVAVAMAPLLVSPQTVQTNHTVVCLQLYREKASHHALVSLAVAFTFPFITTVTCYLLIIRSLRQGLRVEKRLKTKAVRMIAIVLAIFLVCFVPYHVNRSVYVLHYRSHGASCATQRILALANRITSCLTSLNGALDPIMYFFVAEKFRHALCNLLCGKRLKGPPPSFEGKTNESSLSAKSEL
For series [3], the target named is T1, GPR17. The series is described as follows: cAMP accumulation functional assay (HTRF, Schild analysis vs MDL29,951). It counts as cell-based. On the set-up: host or cells: Flp-In T-REx CHO. As to conditions: CHO hGPR17, Schild analysis against MDL29,951, activity range; read-out: cAMP assay pA2 (converted). The protocol: Flp-In T-REx CHO cells stably expressing human GPR17 receptor (CHO hGPR17) from Evi Kostenis' lab (Bonn University, Germany) were cultured at 37° C. in a humidified atmosphere of 5% CO2. Cells were grown in DMEM with Nutrient Mixture F-12 supplemented with hygromycin B (500 μg/ml) and blasticidin (30 μg/ml). Expression from the Flp-In locus was induced by treatment with doxycycline (1 μg/ml) for 16-20 h prior assays.
GPR17 activation can also recruit Gi-type G-protein signaling, resulting in a decrease of intracellular cyclic adenosine monophosphate (cAMP). Intracellular cAMP changes can be measured using the HTRF cAMP dynamic assay kit from CisBio (Codolet, France). Using homogenous time-resolved fluorescence technology (HTRF), the assay is based on competition between native cAMP produced by cells and cAMP labelled with the dye d2. The tracer binding was determined by an anti-cAMP antibody labeled with cryptate.
CHO hGPR17 were detached with PBS containing EDTA and dispatched in black 384-well plates with 5,000 cells per well. Cells were first incubated for 30 minutes at room temperature in HBSS Hepes (pH 7.4) containing vehicle or varying concentrations of test GPR17 antagonist/inverse agonist compounds. Then, a dose response curve of MDL29,951 GPR17 agonist (typically from 10^−5 M to 10^−10 m) was added on vehicle and on each test GPR17 antagonist/inverse agonist compound concentration in a final volume of 20 μL HBSS Hepes buffer (pH 7.4) containing 1% DMSO, 5 μM forskolin and 0.1 mM IBMX. After 60 minutes incubation at room temperature, the reaction is terminated and the cells lysed by adding the d2 detection reagent and the cryptate reagent in 10 μL lysis buffer each according to manufacturer's instructions. After 60 minutes incubation, changes in cAMP concentrations are measured according to manufacturer's instructions using an Envision plate reader with laser excitation. All incubations were performed in duplicate. Data was analyzed using GraphPad Prism software using the 4-parameter logistic equation to measure MDL29,951 pEC50s in absence and presence of GPR17 antagonist/inverse agonist test compounds. Dose ratio (DR) were plotted against antagonist concentrations and Schild analysis provided estimated affinity pA2 of GPR17 antagonist/inverse agonist test compounds.
Target sequence in this assay (Q13304 whole entry): as the sequence (Q13304 whole entry, species assumed) above

As for `O=S(=O)(Nc1nc(F)c(OCCF)cc1F)c1c[nH]c2cc(Cl)ccc12` [Comparative Example 1, 6-chloro-N-[3,6-difluoro-5-(2-fluoroethoxy)pyridin-2-yl]-1H-indole-3-sulfonamide, reference compound], the “induction of CYP1A2” value in series [1] amounted to 16 fold.
Take `NCC(=O)CCC(=O)O` [Example 5-ALA, 5 amino levulinic acid]: the “amounts needed in the assays” value in series [2] is given as “three digit micromolar range”.
Regarding `O=S(=O)(Nc1nc(F)c(OCCF)cc1F)c1c[nH]c2c(Cl)c(Cl)ccc12` [Example I-1, 6,7-dichloro-N-[3,6-difluoro-5-(2-fluoroethoxy)pyridin-2-yl]-1H-indole-3-sulfonamide], the “induction of CYP1A2” value in series [1] is “no CYP1A2 induction”. Further, the Kb in series [3] is ≤ 3.16 nM.
In the same order, the values of `O=S(=O)(Nc1nc(F)c(OCCF)cc1F)c1c[nH]c2c(OC3CC3)c(Cl)ccc12` [Example I-2, 6-chloro-7-cyclopropyloxy-N-[3,6-difluoro-5-(2-fluoroethoxy)pyridin-2-yl]-1H-indole-3-sulfonamide] are “no CYP1A2 induction” and ≤ 3.16 nM.
In the same order, the values of `O=S(=O)(Nc1nc(F)c(OCCF)cc1F)c1c[nH]c2c(C(F)F)c(Cl)ccc12` [Example I-3, 6-chloro-N-[3,6-difluoro-5-(2-fluoroethoxy)pyridin-2-yl]-7-(difluoromethyl)-1H-indole-3-sulfonamide] are “no CYP1A2 induction” and ≤ 3.16 nM.
Regarding `O=S(=O)(Nc1ncc(OCCF)cc1F)c1c[nH]c2c(Cl)c(Cl)ccc12` [Example I-5, 6,7-dichloro-N-[3-fluoro-5-(2-fluoroethoxy)pyridin-2-yl]-1H-indole-3-sulfonamide], the Kb in series [3] was 3.16 to 31.6 nM.
Still for that read-out and setting: in the case of `O=S(=O)(Nc1ncc(OCC(F)F)cc1F)c1c[nH]c2c(Cl)c(Cl)ccc12` [Example I-6, 6,7-dichloro-N-[5-(2,2-difluoroethoxy)-3-fluoropyridin-2-yl]-1H-indole-3-sulfonamide] it was 3.16 to 31.6 nM.
As for `O=S(=O)(Nc1ncc(OCCF)cc1F)c1c[nH]c2c(C(F)F)c(Cl)ccc12` [Example I-7, 6-chloro-7-(difluoromethyl)-N-[3-fluoro-5-(2-fluoroethoxy)pyridin-2-yl]-1H-indole-3-sulfonamide], in series [3], the Kb is 3.16 to 31.6 nM.
On the same count and under the same terms, in the case of `O=S(=O)(Nc1ncc(OCCF)cc1F)c1c[nH]c2c(F)c(C(F)F)ccc12` [Example I-8, 6-(difluoromethyl)-7-fluoro-N-[3-fluoro-5-(2-fluoroethoxy)pyridin-2-yl]-1H-indole-3-sulfonamide] it was > 31.6 nM.
Same read-out and setting: in the case of `O=S(=O)(Nc1nc(F)c(OCCF)cc1F)c1c[nH]c2c(F)c(Cl)ccc12` [Example I-10, 6-chloro-N-[3,6-difluoro-5-(2-fluoroethoxy)pyridin-2-yl]-7-fluoro-1H-indole-3-sulfonamide] it was ≤ 3.16 nM; in that of `O=S(=O)(Nc1nc(F)c(OCC(F)F)cc1F)c1c[nH]c2c(F)c(Cl)ccc12` [Example I-11, 6-chloro-N-[5-(2,2-difluoroethoxy)-3,6-difluoropyridin-2-yl]-7-fluoro-1H-indole-3-sulfonamide], ≤ 3.16 nM.
Take `O=S(=O)(Nc1nc(F)c(OCCF)cc1F)c1c[nH]c2c(C3CC3)c(Cl)ccc12` [Example I-12, 6-chloro-7-cyclopropyl-N-[3,6-difluoro-5-(2-fluoroethoxy)pyridin-2-yl]-1H-indole-3-sulfonamide]: the “induction of CYP1A2” value in series [1] is recorded as “no CYP1A2 induction”. Moreover, the Kb in series [3] is 3.16 to 31.6 nM.
Regarding `COc1nc(NS(=O)(=O)c2c[nH]c3c(Cl)c(Cl)ccc23)c(F)cc1OCC(F)F` [Example I-13, 6,7-dichloro-N-[5-(2,2-difluoroethoxy)-3-fluoro-6-methoxypyridin-2-yl]-1H-indole-3-sulfonamide], the Kb in series [3] is ≤ 3.16 nM.
Take `O=S(=O)(Nc1ncc(OCC(F)F)cc1F)c1c[nH]c2c(C(F)F)c(Cl)ccc12` [Example I-14, 6-chloro-N-[5-(2,2-difluoroethoxy)-3-fluoropyridin-2-yl]-7-(difluoromethyl)-1H-indole-3-sulfonamide]: the Kb in series [3] was 3.16 to 31.6 nM.
On the same count and under the same terms, in the case of `COc1nc(NS(=O)(=O)c2c[nH]c3c(C(F)F)c(Cl)ccc23)c(F)cc1OCC(F)F` [Example I-15, 6-chloro-N-[5-(2,2-difluoroethoxy)-3-fluoro-6-methoxypyridin-2-yl]-7-(difluoromethyl)-1H-indole-3-sulfonamide] it was ≤ 3.16 nM; in that of `COc1cc(OC(F)F)cnc1NS(=O)(=O)c1c[nH]c2c(Cl)c(Cl)ccc12` [Example I-16, 6,7-dichloro-N-[5-(difluoromethoxy)-3-methoxypyridin-2-yl]-1H-indole-3-sulfonamide], ≤ 3.16 nM; in that of `COc1cc(OC(F)F)cnc1NS(=O)(=O)c1c[nH]c2c(C(F)F)c(Cl)ccc12` [Example I-17, 6-chloro-N-[5-(difluoromethoxy)-3-methoxypyridin-2-yl]-7-(difluoromethyl)-1H-indole-3-sulfonamide], 3.16 to 31.6 nM.
The same measure, in the same setting: in the case of `O=S(=O)(Nc1nc(F)c(OCCF)cc1F)c1c[nH]c2c(OC(F)(F)F)c(Cl)ccc12` [Example I-18, 6-chloro-N-[3,6-difluoro-5-(2-fluoroethoxy)pyridin-2-yI]-7-(trifluoromethoxy)-1H-indole-3-sulfonamide] it was 3.16 to 31.6 nM.
The same measure, in the same setting: in the case of `O=S(=O)(Nc1ncc(OCC(F)F)cc1F)c1c[nH]c2c(F)c(C(F)F)ccc12` [Example I-19, N-[5-(2,2-difluoroethoxy)-3-fluoropyridin-2-yl]-6-(difluoromethyl)-7-fluoro-1H-indole-3-sulfonamide] it was > 31.6 nM.
`COc1nc(NS(=O)(=O)c2c[nH]c3c(Cl)c(C(F)F)ccc23)c(F)cc1OCC(F)F` [Example I-20, 7-chloro-N-[5-(2,2-difluoroethoxy)-3-fluoro-6-methoxypyridin-2-yl]-6-(difluoromethyl)-1H-indole-3-sulfonamide]: the Kb in series [3] is ≤ 3.16 nM.
Still for that read-out and setting: in the case of `COc1cc(OCC(F)F)cnc1NS(=O)(=O)c1c[nH]c2c(Cl)c(Cl)ccc12` [Example I-21, 6,7-dichloro-N-[5-(2,2-difluoroethoxy)-3-methoxypyridin-2-yl]-1H-indole-3-sulfonamide] it was 3.16 to 31.6 nM; in that of `COc1nc(NS(=O)(=O)c2c[nH]c3c(F)c(Cl)ccc23)c(F)cc1OCC(F)F` [Example I-22, 6-chloro-N-[5-(2,2-difluoroethoxy)-3-fluoro-6-methoxypyridin-2-yl]-7-fluoro-1H-indole-3-sulfonamide], ≤ 3.16 nM; in that of `COc1nc(NS(=O)(=O)c2c[nH]c3c(F)c(Cl)ccc23)c(F)cc1OCCOC(F)F` [Example I-23, 6-chloro-N-[5-[2-(difluoromethoxy)ethoxy]-3-fluoro-6-methoxypyridin-2-yl]-7-fluoro-1H-indole-3-sulfonamide], ≤ 3.16 nM.
`NCc1[nH]cc(CCC(=O)O)c1CC(=O)O` [PBG, porphobilinogen]: the “amounts needed in the assays” value in series [2] is listed as “mM range”.
